Reference: patent publication US4349667A, “Aminoglycoside antibiotic G-367-2” (Toyo Jozo Kabushiki Kaisha, priority 1979, dated 1982)
Converted amounts (≈) assume the structure as drawn.

Legend:
Format in all cases: cell-based
[1] = tested on: Bacillus subtilis ATCC 6633; experiment: antimicrobial spectrum (MIC) by agar dilution method; conditions: ATCC6633, read-out: minimum inhibitory concentration, MIC
Source text: (§1) The antimicrobial spectrum (minimum inhibitory concentration, MIC) of G-367-2 by agar dilution method is as follows: […]

[2] = tested on: Citrobacter freundii GN346; experiment: as above; conditions: GN346, read-out: minimum inhibitory concentration, MIC
Source text: as §1

[3] = tested on: Enterobacter aerogenes 0655; experiment: as above; conditions: Klebsiella aerogenes, read-out: minimum inhibitory concentration, MIC
Source text: as §1

[4] = tested on: Enterobacter cloacae GN336; experiment: as above; conditions: read-out: minimum inhibitory concentration, MIC
Source text: as §1

[5] = tested on: Escherichia coli NIHJ-JC2; experiment: as above; conditions: NIHJJC2, read-out: minimum inhibitory concentration, MIC
Source text: as §1

[6] = tested on: Escherichia coli W3630 RGN14; experiment: as above; conditions: W3630RGN14, read-out: minimum inhibitory concentration, MIC
Source text: as §1

Escherichia coli W3630 = experiment: as above; conditions: read-out: minimum inhibitory concentration, MIC
Source text: as §1

[7] = tested on: Klebsiella pneumonia ATC 10031; experiment: as above; conditions: Klebsiella pneumoniae, ATC10031, read-out: minimum inhibitory concentration, MIC
Source text: as §1

Proteus morganii 0239 = experiment: as above; conditions: Morganella morganii, read-out: minimum inhibitory concentration, MIC
Source text: as §1

Proteus rettgeri ACR = experiment: as above; conditions: Providencia rettgeri, read-out: minimum inhibitory concentration, MIC
Source text: as §1

[8] = tested on: Pseudomonas aeruginosa 1946; experiment: as above; conditions: read-out: minimum inhibitory concentration, MIC
Source text: as §1

[9] = tested on: Pseudomonas aeruginosa 2512; experiment: as above; conditions: read-out: minimum inhibitory concentration, MIC
Source text: as §1

[10] = tested on: Pseudomonas aeruginosa IAM1095; experiment: as above; conditions: read-out: minimum inhibitory concentration, MIC
Source text: as §1

[11] = tested on: Pseudomonas aeruginosa ML4561 RP4; experiment: as above; conditions: ML4561RP4, read-out: minimum inhibitory concentration, MIC
Source text: as §1

[12] = tested on: Pseudomonas aeruginosa ML4561 Rms164-1; experiment: as above; conditions: ML4561RMS1641, read-out: minimum inhibitory concentration, MIC
Source text: as §1

[13] = tested on: Pseudomonas aeruginosa ML4561 Rms166; experiment: as above; conditions: ML4561RMS166, read-out: minimum inhibitory concentration, MIC
Source text: as §1

[14] = tested on: Pseudomonas aeruginosa ML4561; experiment: as above; conditions: ML4561, read-out: minimum inhibitory concentration, MIC
Source text: as §1

[15] = tested on: Pseudomonas maltophilia 1850; experiment: as above; conditions: Stenotrophomonas maltophilia, read-out: minimum inhibitory concentration, MIC
Source text: as §1

Pseudomonas putida 1842 = experiment: as above; conditions: read-out: minimum inhibitory concentration, MIC
Source text: as §1

[16] = tested on: Salmonella enteritidis Gartner; experiment: as above; conditions: Salmonella enterica, read-out: minimum inhibitory concentration, MIC
Source text: as §1

Serratia marcescens = experiment: as above; conditions: read-out: minimum inhibitory concentration, MIC
Source text: as §1

Shigella sonnei E33 = experiment: as above; conditions: read-out: minimum inhibitory concentration, MIC
Source text: as §1

[17] = tested on: Staphylococcus aureus 0119; experiment: as above; conditions: read-out: minimum inhibitory concentration, MIC
Source text: as §1

[18] = tested on: Staphylococcus aureus ATCC 6538P; experiment: as above; conditions: ATCC6538P, read-out: minimum inhibitory concentration, MIC
Source text: as §1

[19] = tested on: Staphylococcus aureus MS 27; experiment: as above; conditions: MS27, read-out: minimum inhibitory concentration, MIC
Source text: as §1

[20] = tested on: Staphylococcus epidermidis sp-al-1; experiment: as above; conditions: SPAL1, read-out: minimum inhibitory concentration, MIC
Source text: as §1

[21] = tested on: Streptococcus pyogenes N.Y.5; experiment: as above; conditions: read-out: minimum inhibitory concentration, MIC
Source text: as §1

Gram negative bacteria = experiment: antibacterial effect against Gram negative bacteria
Source text: as §1

CNC1C(O)C(OC2C(N)CC(N)C(OC3OC(CN)=CCC3N)C2O)OCC1(C)O (stereo not shown) [G-367-2]
MIC [1]: 1.6 µg/mL (≈ 3.58 µM) | MIC [2]: 3.1 µg/mL (≈ 6.93 µM) | MIC [3]: 1.6 µg/mL (≈ 3.58 µM) | MIC [4]: 1.6 µg/mL (≈ 3.58 µM) | MIC [5]: 3.1 µg/mL (≈ 6.93 µM) | MIC [6]: 1.6 µg/mL (≈ 3.58 µM) | MIC (Escherichia coli W3630): 1.6 µg/mL (≈ 3.58 µM) | MIC [7]: 1.6 µg/mL (≈ 3.58 µM) | MIC (Proteus morganii 0239): 6.3 µg/mL (≈ 14.1 µM) | MIC (Proteus rettgeri ACR): 3.1 µg/mL (≈ 6.93 µM) | MIC [8]: > 100 µg/mL | MIC [9]: > 100 µg/mL | MIC [10]: 25 µg/mL (≈ 55.9 µM) | MIC [11]: 6.3 µg/mL (≈ 14.1 µM) | MIC [12]: 50 µg/mL (≈ 112 µM) | MIC [13]: > 100 µg/mL | MIC [14]: 125 µg/mL (≈ 279 µM) | MIC [15]: > 100 µg/mL | MIC (Pseudomonas putida 1842): > 100 µg/mL | MIC [16]: 3.1 µg/mL (≈ 6.93 µM) | MIC (Serratia marcescens): 50 µg/mL (≈ 112 µM) | MIC (Shigella sonnei E33): 3.1 µg/mL (≈ 6.93 µM) | MIC [17]: 12.5 µg/mL (≈ 27.9 µM) | MIC [18]: 12.5 µg/mL (≈ 27.9 µM) | MIC [19]: 12.5 µg/mL (≈ 27.9 µM) | MIC [20]: 1.6 µg/mL (≈ 3.58 µM) | MIC [21]: 6.3 µg/mL (≈ 14.1 µM) | antibacterial effect (Gram negative bacteria): strong antibacterial effect
